According to patent publication US6562864B1, “Catechin multimers as therapeutic drug delivery agents” (priority 1999, dated 2003):
Read-outs that look alike come from different tables or passages of the source.

Assays:
human platelets [1] = test: Human platelet aggregation trial with platelet activating factor (PAF) as aggregating agent; type: cell-based
Experimental: (§1) Human platelet aggregation trials, using PAF and thrombin as aggregating agents, were conducted with gallic acid, catechin and amidated catechin multimers (made according to the process of Example 1). The protocol was as follows: Test compounds (50 μM gallic acid, 100 μM catechin and 3 μM amidated catechin multimer) were dissolved in water and 10 μl of sample was added to 1 ml aliquots of human platelets to give the final estimated vessel content concentration of 3 μM.^1 Next, human platelets at a concentration of 1×10^−7/ml were preincubated for ten minutes at 37° C. with either vehicle (contol) or with 3 μM of the amino-catechin multimer test compound. Then, either platelet activating factor (5×10^−10 μM) or thrombin (0.05 mg/ml) were added and aggregation was monitored over the next 10 minutes in a PACKS-4 Platelet Aggregation Chromogenic Kinetic System (Helena Lab., Beaumont, Tex.). ^1 The molar concentration of total product was 10 μM. […] For molar calculations, the molecular weight of the amino-catechin was presumed to be 300 daltons.

human platelets [2] = test: Human platelet aggregation trial with thrombin as aggregating agent; type: cell-based
Experimental: as §1

rat aortic rings = test: Contraction and endothelium dependent relaxation of rat aortic rings; details: mean (±SEM)
Experimental: Male Sprague-Dawley rats (200-250 g) were euthanized with an overdose of sodium pentobarbital (100 mg/kg, i.p.) and bled. The thoracic aorta was excised and cleaned and rings 3-4 mm in length were cut, taking care not to disturb the endothelium The rings were suspended in tissue baths containing a physiologic salt solution. The solution was bubbled continuously with O2/CO2 (95%/5%), and maintained at 37° C. Contraction activity was recorded on a Grass polygraph. After equilibration for at least 1 h under 1.5 g of tension, tissues were contracted submaximally (approximately 80% of Emax) with 1 μM phenylephrine. […] This concentration of acetylcholine is sufficient to produce maximum endothelium dependent relaxation in intact rings.
Rings were washed with physiological salt solution three times over the next 45 min. prior to the subsequent testing. Beginning with a concentration determined in preliminary experiments to be below the threshold for relaxation, and increased until a relaxation of approximately 15% was achieved (relative to the relaxation induced by 3 μM acetycholine).

[3] = Preliminary ex-vitro trials: cholesterol solubility in human plasma
Description: Limonene is commonly thought of as a solvent, having a KB value of 67.

O=C(O)c1cc(O)c(O)c(O)c1 [gallic acid]
inhibition of human platelet aggregation caused by platelet activating factor (human platelets [1]; 50 μM): no inhibition
inhibition of human platelet aggregation caused by thrombin (human platelets [2]; 50 μM): no inhibition

O.Oc1cc(O)c2c(c1)O[C@H](c1ccc(O)c(O)c1)[C@@H](O)C2 [catechin]
inhibition of human platelet aggregation caused by platelet activating factor (human platelets [1]; 100 μM): no inhibition
inhibition of human platelet aggregation caused by thrombin (human platelets [2]; 100 μM): no inhibition

CNC[C@H](O)c1cccc(O)c1 [phenylephrine]
EC50 (rat aortic rings; rat aortic rings, read-out: EC50 value for phenylephrine (contractile effect)): 140 ± 20 nM

CC(=O)OCC[N+](C)(C)C [acetylcholine]
EC50 (rat aortic rings; rat aortic rings contracted with 1 μM phenylephrine, read-out: EC50 for EDR (endothelium dependent relaxation)): 120 ± 60 nM

C=C(C)C1CC=C(C)CC1 (centres unmarked) [limonene, 4-isopropenyl-1-methylcyclohexene]
rate of plasma metabolizing excess cholesterol ([3]; minimum rate): ≥ 4 % per hour
increase of the rate of solubility of cholesterol ([3]; over a one hour period): 24%
